Laboratory results: patent US6841684B2, “Imidiazoles having reduced side effects” (Allergan, Inc., priority 1997, dated 2005)
Marks after values point to notes of the source that are not given here.

Tests used:
[1] = target: T1, rat α2B (RNG gene) receptor (Rattus norvegicus, UniProt P19328); experiment: RSAT (Receptor Selection and Amplification Technology) assay, alpha 2B; assay type: cell-based; conditions: ratio of maximal effect to that of standard full agonist oxymetazoline
T1 construct: expressed in transfected cells; host or cells: NIH-3T3 cells, calcium phosphate cotransfection
T1 sequence (P19328 1-453): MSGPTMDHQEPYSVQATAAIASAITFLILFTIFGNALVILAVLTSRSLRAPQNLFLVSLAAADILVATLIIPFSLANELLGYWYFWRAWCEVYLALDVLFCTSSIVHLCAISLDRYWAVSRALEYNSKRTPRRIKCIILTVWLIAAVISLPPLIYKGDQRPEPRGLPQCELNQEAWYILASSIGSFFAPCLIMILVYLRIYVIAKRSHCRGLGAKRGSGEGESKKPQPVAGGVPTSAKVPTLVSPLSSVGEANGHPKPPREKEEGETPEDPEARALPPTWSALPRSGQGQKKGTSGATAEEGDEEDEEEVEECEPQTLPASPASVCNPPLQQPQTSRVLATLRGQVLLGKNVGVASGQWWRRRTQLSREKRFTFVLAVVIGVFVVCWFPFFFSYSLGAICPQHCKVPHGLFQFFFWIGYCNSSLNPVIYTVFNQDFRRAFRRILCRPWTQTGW
In short: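 NIH-3T3 cells transiently cotransfected with receptor, hybrid Gq/i5 protein and β-galactosidase marker were incubated with compound dilutions in triplicate for 72-96 hr at 37°. Proliferation was read as β-galactosidase activity (o-nitrophenyl-β-D-galactopyranoside, overnight at 30°, OD 420 nm). EC50 and efficacy were derived, the latter relative to a standard full agonist's maximal effect.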

[2] = tested on: cynomolgus monkeys with sustained elevated IOP; experiment: IOP lowering in conscious monkeys, eyes made hypertensive by argon laser photocoagulation; assay type: in vivo, cynomolgus monkey; conditions: Macaca fascicularis, topical, 6 h, single 50 μl eye drop, up to 6 hours, read-out: Maximum % Decrease From Pretreatment Levels Hypertensive Eye (IOP); for inhibition in vivo at 0.3 %: ocular dose 0.3%; for inhibition in vivo at 1 %: ocular dose 1%
From the text: Measurements of IOP were made in fully conscious female cynomolgus monkeys weighing 3-4 kg with sustained elevated IOP that was produced in the right eye by argon laser photocoagulation of the trabecular meshwork. Animals were usable for experiments 2 months following surgery. During the experiments, monkeys sat in specially designed chairs (Primate Products, San Francisco), and were fed orange juice and fruit as needed. A 30R model Digilab pneumatonometer (Alcon, Tex.) was used to measure IOP.
Twenty five μl of an anesthetic (proparacaine) was topically applied to each monkey before IOP measurements to minimize ocular discomfort due to tonometry. Two baseline measurements were made prior to instillation of the drugs, followed by periodic measurements up to 6 hours post-instillation. The test compounds were administered unilaterally as a single 50 μl eye drop; the contralateral eyes received an equal volume of saline.

[3] = tested on: conscious cynomolgus monkeys; experiment: Sedation score during the IOP experiments; assay type: in vivo, cynomolgus monkey; set-up: key to Sedation (0-4): 0=alert, typical vocalization, movement, etc.; 1=calm, less movement; 2=slightly sedated, some vocalization, responsive to stimulation; 3=sedated, no vocalization, some response to stimulation; 4=asleep
Procedure: At the same time, sedation was measured and assessed according to the following score: 0=alert, typical vocalization, movement, etc.; 1=calm, less movement; 2=slightly sedated, some vocalization, responsive to stimulation; 3=sedated, no vocalization, some response to stimulation; 4=asleep.

[4] = tested on: conscious cynomolgus monkeys; experiment: Cardiovascular side effects (blood pressure, heart rate) after i.v. administration; assay type: in vivo, cynomolgus monkey; conditions: up to 6 hours, + with * = increase from base levels
From the text: Cardiovascular measurements were made in a different group of monkeys using a BP 100S automated sphygmomanometer (Nippon Colin,. Japan).

[5] = tested on: rats with ligation of two spinal nerves; experiment: Spinal nerve ligation model of neuropathic pain, reversal of tactile allodynia; assay type: in vivo, rat; conditions: for Reversal of Tactile Allodynia (%): 30 minutes after dosing
From the text: (§1) Alleviation of pain including neuropathic pain is another example of a disorder in which the compounds of the invention are useful and advantageous since pain is alleviated without undesirable side effects. […] (See, for example, Kim, S. and Chung, J. “An experimental model for peripheral neuropathy produced by segmental spinal nerve ligation in the rat.” Pain 50 pp. 355-363 (1992).) Following ligation of two spinal nerves, the animals develop a sensitivity to normally non-painful stimuli such as touch. The ability of alpha2 compounds to reverse this sensitivity, called allodynia, was tested 30 minutes after dosing by either intrathecal or intraperitoneal administration. The sedative activity of each compound was also measured using an activity chamber.

rats = experiment: Sedative activity measured using an activity chamber; assay type: in vivo, rat; conditions: for Sedation (%): 30 minutes after dosing; for sedation (in words): intrathecal or intraperitoneal, rats
From the text: as §1

Row | SMILES | Intrinsic Activity Relative to Oxymetazoline, Alpha 2B [1] | inhibition in vivo at 0.3 % [2] [%] | inhibition in vivo at 1 % [2] [%] | Sedation (0-4) ([3]; ocular dose 0.3%) | Sedation (0-4) ([3]; ocular dose 1%) | Maximum % Decrease From Pretreatment Levels, Heart Rate ([4]; i.v. 17 μg/kg) [%] | Maximum % Decrease From Pretreatment Levels, Mean Arterial Blood Pressure ([4]; i.v. 17 μg/kg) [%] | Maximum % Decrease From Pretreatment Levels, Heart Rate ([4]; i.v. 50 μg/kg) [%] | Maximum % Decrease From Pretreatment Levels, Mean Arterial Blood Pressure ([4]; i.v. 50 μg/kg) [%] | Maximum % Decrease From Pretreatment Levels, Heart Rate ([4]; i.v. 167 μg/kg) [%] | Maximum % Decrease From Pretreatment Levels, Mean Arterial Blood Pressure ([4]; i.v. 167 μg/kg) [%] | Maximum % Decrease From Pretreatment Levels, Heart Rate ([4]; i.v. 500 μg/kg) [%] | Maximum % Decrease From Pretreatment Levels, Mean Arterial Blood Pressure ([4]; i.v. 500 μg/kg) | Reversal of Tactile Allodynia (%) ([5]; intraperitoneal 3 mg/kg) | Reversal of Tactile Allodynia (%) ([5]; intraperitoneal 30 mg/kg) | sedation (in words) (rats) | further results
1 | c1ccc2c(c1)CC[C@H](Cc1c[nH]cn1)C2 [Example J-2, (S)-4(5)-(1,2,3,4-tetrahydronaphthalen-2-ylmethyl)-1H-imidazole] | 0.8 | – | – | 0 | – | – | – | – | – | – | – | 6.4 ± 3.3 | +0.6 ± 3.1* % | – | – | – | inhibition in vivo at 0.03 % ([2]; ocular dose 0.03%): 12.4 ± 3.7%; Sedation (0-4) ([3]; ocular dose 0.03%): 0
2 | Cc1[nH]cnc1Cc1ccc2c(c1)OCCO2 [M, 4-(2,3-dihydrobenzo[1,4]dioxin-6-ylmethyl)-5-methyl-1H-imidazole] | 0.97 | – | 22.5 ± 5.4 | – | 0 | – | – | – | – | – | – | 5.5 ± 1.9 | 0.8 ± 2.3% | – | – | – | –
3 | Brc1c(NC2=NCCN2)ccc2nccnc12 [brimonidine, reference compound] | – | 40 ± 4 | – | 2 | – | 52 ± 3 | 36 ± 3 | 54 ± 3 | 37 ± 5 | – | – | – | – | 0 | 37* % | cause sedation at doses only slightly higher than their anti-allodynic doses | inhibition in vivo at 0.1 % ([2]; ocular dose 0.1%): 25 ± 3%; sedation (in words) ([3]; ocular administration, monkeys): caused sedation; Sedation (0-4) ([3]; ocular dose 0.1%): 1; Sedation (%) (rats; intraperitoneal 30 mg/kg): 24%; Sedation (%) (rats; intraperitoneal 300 mg/kg): 67* %

The next lines start with results.

Row | Intrinsic Activity Relative to Oxymetazoline, Alpha 2B [1] | SMILES | inhibition in vivo at 0.3 % [2] [%] | inhibition in vivo at 1 % [2] [%] | Sedation (0-4) ([3]; ocular dose 0.3%) | Sedation (0-4) ([3]; ocular dose 1%) | Maximum % Decrease From Pretreatment Levels, Heart Rate ([4]; i.v. 17 μg/kg) [%] | Maximum % Decrease From Pretreatment Levels, Mean Arterial Blood Pressure ([4]; i.v. 17 μg/kg) [%] | Maximum % Decrease From Pretreatment Levels, Heart Rate ([4]; i.v. 50 μg/kg) [%] | Maximum % Decrease From Pretreatment Levels, Mean Arterial Blood Pressure ([4]; i.v. 50 μg/kg) [%] | Maximum % Decrease From Pretreatment Levels, Heart Rate ([4]; i.v. 167 μg/kg) [%] | Maximum % Decrease From Pretreatment Levels, Mean Arterial Blood Pressure ([4]; i.v. 167 μg/kg) [%] | Maximum % Decrease From Pretreatment Levels, Heart Rate ([4]; i.v. 500 μg/kg) [%] | Maximum % Decrease From Pretreatment Levels, Mean Arterial Blood Pressure ([4]; i.v. 500 μg/kg) | Reversal of Tactile Allodynia (%) ([5]; intraperitoneal 3 mg/kg) | Reversal of Tactile Allodynia (%) ([5]; intraperitoneal 30 mg/kg) | sedation (in words) (rats) | further results
4 | 0.83 | CN1CCOc2ccc(N=C3NCCN3)cc21 [Example E-1, imidazolidin-2-ylidene-(4-methyl-3,4-dihydro-2H-benzo[1,4]oxazin-6-yl) amine] | 25 ± 4 | 27 ± 3 | 0 | 0 | 11 ± 4 | 7 ± 4 | 14 ± 5 | 7 ± 2 | 11 ± 5 | 9 ± 4 | – | – | – | – | – | –
5 | 0.83 | c1nc(CC2CCCCC2)c[nH]1 [Example J-1, 4(5)-cyclohexylmethyl-1H-imidazole] | – | 26 ± 5 | – | 0 | 13 ± 4 | 7 ± 5.3 | 6 ± 2 | 4 ± 2 | 3 ± 3 | 7 ± 5 | 7 ± 4 | 13 ± 3% | – | – | – | inhibition in vivo at 3 % ([2]; ocular dose 3%): 33 ± 3%; Sedation (0-4) ([3]; ocular dose 3%): 0
6 | 0.75 | Cl.O=C1C2=C(CCCC2)CCC1Cc1c[nH]cn1 (centres unmarked) [Example N-1, 2-(1H-imidazol-4(5)-ylmethyl)-3,4,5,6,7,8-hexahydro-2H-naphthalen-1-one, hydrochloride salt] | – | – | – | – | – | – | – | – | – | – | – | – | 3 | 41* % | without causing sedation, even at very high doses | Reversal of Tactile Allodynia (%) ([5]; intrathecal 3 μg): 13%; Reversal of Tactile Allodynia (%) ([5]; intrathecal 30 μg): 64* %; alleviation of allodynia (in words) ([5]; intrathecal or intraperitoneal, rats): able to alleviate the allodynia; Sedation (%) (rats; intraperitoneal 10,000 mg/kg): 0%; Sedation (%) (rats; intrathecal 30 μg): 0%; Sedation (%) (rats; intrathecal 300 μg): 0%
